Laboratory results from patent publication US20200029558A1, “Biocidal Microcapsules for Biofouling Control” (Greenseal Research Ltd, priority 2016, published 2020).

Columns and labels:
Assay type in all cases: cell-based
[1] = system: Staphylococcus aureus (ATCC 25923); assay: Well diffusion antimicrobial bioassay of microcapsules; settings: wells approx. 5.0 mm, 37° C. 24 hours
Method: (§1) Bioassays were performed to assess the antimicrobial activity against Staphylococcus aureus (ATCC 25923) by the Well diffusion method, at different mediums (artificial sea water (Sera marine salt), DMSO and MilliQ water). Initially, the microorganisms were cultured on Muller-Hinton agar for bacteria Staphylococcus aureus. Then, 100 μL of a standardized microorganism suspension, corresponding to 0.5 McFarland, was used to inoculate a Petri dish of solid Mueller-Hinton medium. These suspensions were spread over the medium surface using a sterile swab. Subsequently, agar wells were made of approximately 5.0 mm in diameter with a Pasteur pipette. Then, 50 μL of each sample, negative control (DMSO) and positive control (Econea) for Gram positive bacteria (Staphylococcus aureus), were added on each of the wells. Plates were incubated at 37° C. for 24 hours. After this period, the diameters of the inhibition zones were measured and the results were expressed in millimeters (mm). The assay was performed under aseptic conditions and in triplicate [M. Pereira, D. Matias, F. Pereira, C. P. Reis, M. F. Simões, P. Rijo, Antimicrobial screening of Plectranthus madagascariensis and P. neochilus extracts, Biomedical and Biopharmaceutical Research, Vol. 12 (2015) 127-138]. Following the above described procedure, different mediums were used to assess the bioactivity of microcapsules, such as artificial sea water, MilliQ water and dimethyl sulfoxide (DMSO) (Table 1).
Following similar bioassays procedures as example 1, different mediums were used to assess the bioactivity of microcapsules, such as artificial sea water, MilliQ water and dimethyl sulfoxide (DMSO) (Table 3).

[2] = system: Staphylococcus aureus (ATCC25923); assay: Antimicrobial activity of coating formulation films containing biocidal microcapsules
Method: as §1, with “Following the above described procedure, different mediums were used to assess the bioactivity of microcapsules, such as artificial sea water, MilliQ water and dimethyl sulfoxide (DMSO) (Table 1).” left out

[3] = system: Staphylococcus aureus (ATCC25923); assay: Leaching tests on coated specimens (adapted OECD 313-2007), leaching waters assessed by bioassay; settings: after 30 days of exposure in artificial sea water, 120 rpm
Method: as §1, with “The assay was performed under aseptic conditions and in triplicate [M. Pereira, D. Matias, F. Pereira, C. P. Reis, M. F. Simões, P. Rijo, Antimicrobial screening of Plectranthus madagascariensis and P. neochilus extracts, Biomedical and Biopharmaceutical Research, Vol. 12 (2015) 127-138]. Following the above described procedure, different mediums were used to assess the bioactivity of microcapsules, such as artificial sea water, MilliQ water and dimethyl sulfoxide (DMSO) (Table 1).” left out
Leaching of the biocide through the paint films of coated specimens containing the developed biocidal MCs was assessed by leaching tests, following an adapted procedure from the standard OECD 313-2007. […] Finally, the antimicrobial activity of the leaching waters was assessed by bioassays against microorganisms such as Staphylococcus aureus, following the same procedure as described in the previous examples.

## N#Cc1c(-c2ccc(Cl)cc2)[nH]c(C(F)(F)F)c1Br [Econea biocide, 2-(p-chlorophenyl)-3-cyano-4-bromo-5-trifluoromethyl pyrrole]
[1]; medium DMSO
  Inhibition zones: 19 mm
[1]; medium MilliQ water
  Inhibition zones: 23 mm
[1]; medium artificial sea water
  Inhibition zones: 20 mm
[2]; medium DMSO
  Inhibition zones of polyurethane based coating formulations: 20 mm
[2]; medium artificial sea water
  Inhibition zones of polyurethane based coating formulations: 18 mm
[3]
  Inhibition zones of leaching waters of immersed coated specimens: 20 mm
